The source of these data is patent publication EP1144412B1, “IMMUNOSUPPRESSIVE EFFECTS OF PTERIDINE DERIVATIVES” (4 AZA Bioscience nv, priority 1998, dated 2000).

Assay [1] deals with Peripheral blood mononuclear cells (PBMC). Kind of assay: Mixed lymphocyte reaction (MLR), [3H]-thymidine incorporation. Format: cell-based. Particulars: Homo sapiens. In outline:
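Human PBMC from density-gradient separation, stimulated in triplicate by irradiated (30 Gy) allogeneic PBMC or EBV-transformed B cells (RPMI1788, B7-1/B7-2 high). After 5 days at 37 °C, 1 µCi [3H]-thymidine added for 16 h; incorporation counted, percent inhibition computed against drug-free and medium-background cpm.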
For orientation: Uptake of a labelled nucleoside into DNA is a usual measure of proliferation.

The subject of assay [2] is Highly purified T cells. Kind of assay: T cell proliferation induced by anti-CD3 mAb + PMA (BrdU incorporation). Type of assay: cell-based, Human. Particulars: for IC50: Homo sapiens, T-cell.
For assay [3], the system named is Highly purified T cells. The assay is described as follows: T cell proliferation induced by anti-CD28 mAb + PMA (BrdU incorporation). Particulars: for IC50: Homo sapiens, T-cell. Format: cell-based, Human.
Setting [4] is: Table II, read-out: IC50 in µM of pteridine derivative MLR.
Where [5] appears, read: untitled structure table, no unit printed there, same values in Table II as IC50 in µM, read-out: MLR.
Where [6] appears, read: Table II, read-out: IC50 in µM of pteridine derivative ACD3.
Where [7] appears, read: untitled structure table, no unit printed there, same values in Table II as IC50 in µM, read-out: aCD3.
Setting [8] is: Table II, read-out: IC50 in µM of pteridine derivative aCD28.
Where [9] appears, read: untitled structure table, no unit printed there, same values in Table II as IC50 in µM, read-out: aCD28.
The mark [10] stands for this setting: untitled structure table, IC50 subranges, read-out: MLR.
[11] abbreviates: untitled structure table, IC50 subranges, read-out: aCD3.
The mark [12] stands for this setting: untitled structure table, IC50 subranges, read-out: aCD28.
Where [13] appears, read: Table III, comparison immunosuppressants, read-out: IC50 MLR.
Where [14] appears, read: Table III, comparison immunosuppressants, read-out: IC50 aCD3.
Setting [15] is: Table III, comparison immunosuppressants, read-out: IC50 aCD28.

Read-outs that look alike come from different tables or passages of the source.

On to `Nc1nc(N2CCNCC2)c2nc(-c3ccc(Cl)cc3)cnc2n1` [Compound 47, 2-amino-4-piperazino-6-(4-chlorophenyl)pteridine], for which the IC50 in assay [1] (setting [4]) was determined as 2 µM; in assay [1] (setting [5]), 2 µM; with Highly purified T cells [2] (setting [6]), 20 µM; in the assay with Highly purified T cells [2] (setting [7]), 20 µM; with Highly purified T cells [3] (setting [8]), 15 µM; in the assay with Highly purified T cells [3] (setting [9]), 15 µM.
Turning to `COc1ccc(-c2cnc3nc(N)nc(N4CCNCC4)c3n2)cc1` [Compound 48, 2-amino-4-piperazino-6-(4-methoxyphenyl)pteridine], the IC50 in assay [1] (setting [4]) amounted to 10.5 µM; in assay [1] (setting [5]) it was 10.5 µM; in the assay with Highly purified T cells [2] (setting [6]) it was 14 µM; in the assay with Highly purified T cells [2] (setting [7]) it was 14 µM; in the assay on Highly purified T cells [3] (setting [8]) it was 4.5 µM; in the assay with Highly purified T cells [3] (setting [9]) it was 4.5 µM.
Take `COc1ccc(-c2cnc3nc(N)nc(N4CCNCC4)c3n2)cc1OC` [Compound 49, 2-amino-4-piperazino-6-(3,4-dimethoxyphenyl)pteridine]: the IC50 in assay [1] (setting [4]) came to 2.8 µM; in assay [1] (setting [5]), 2.8 µM; in the assay with Highly purified T cells [2] (setting [6]), 14.8 µM; in the assay on Highly purified T cells [2] (setting [7]), 14.8 µM; with Highly purified T cells [3] (setting [8]), 4.5 µM; in the assay on Highly purified T cells [3] (setting [9]), 4.5 µM.
As to `COc1cc(-c2cnc3nc(N)nc(N(Cc4ccccc4)Cc4ccccc4)c3n2)cc(OC)c1OC` [Compound 50, 2-amino-4-dibenzylamino-6-(3,4,5-trimethoxyphenyl)pteridine], the IC50 (in assay [1] (setting [10]); with Highly purified T cells [2] (setting [11]); in the assay with Highly purified T cells [3] (setting [12])) was 1 to 15 µM each time.
On to `Nc1nc(N2CCOCC2)c2nc(-c3ccc4c(c3)OCO4)cnc2n1` [Compound 56, 2-amino-4-morpholino-6-(3,4-formylidene-3,4-dihydroxyphenyl)pteridine], for which the IC50 in assay [1] (setting [10]) lay in the range of 1 to 15 µM; in the assay with Highly purified T cells [2] (setting [11]) it was 16 to 150 µM; in the assay on Highly purified T cells [3] (setting [12]) it was 16 to 150 µM.
Turning to `CN(C)c1nc(N)nc2ncc(-c3ccc4c(c3)OCO4)nc12` [Compound 57, 2-amino-4-dimethylamino-6-(3,4-formylidene-3,4-dihydroxyphenyl)pteridine], the IC50 in assay [1] (setting [10]) is greater than 151 µM; in the assay with Highly purified T cells [2] (setting [11]), 16 to 150 µM; with Highly purified T cells [3] (setting [12]), 16 to 150 µM.
With `COc1ccc(-c2cnc3nc(N)nc(N(C)C)c3n2)cc1OC` [Compound 59, 2-amino-4-dimethylamino-6-(3,4-dimethoxyphenyl)pteridine], the figures for the IC50 (in assay [1] (setting [10]); in the assay with Highly purified T cells [2] (setting [11]); with Highly purified T cells [3] (setting [12])) were less than 1 µM, 1 to 15 µM and 1 to 15 µM, respectively.
In the case of `Cc1cnc2nc(N)nc(N(C)C)c2n1` [Compound 60, 2-amino-4-dimethylamino-6-methylpteridine], the IC50 (in assay [1] (setting [10]); with Highly purified T cells [2] (setting [11]); in the assay on Highly purified T cells [3] (setting [12])) was 16 to 150 µM each time.
For `CCOc1nc(N)nc2ncc(-c3ccccc3)nc12` [Compound 61, 2-amino-4-ethoxy-6-phenylpteridine], the IC50 (in assay [1] (setting [10]); with Highly purified T cells [2] (setting [11]); with Highly purified T cells [3] (setting [12])) was 1 to 15 µM in each case.
In the case of `CCCNc1nc(N)nc2ncc(-c3ccccc3)nc12` [Compound 62, 2-amino-4-propylamino-6-phenylpteridine], the IC50 was 1 to 15 µM in assay [1] (setting [10]), 16 to 150 µM in the assay with Highly purified T cells [2] (setting [11]) and 16 to 150 µM in the assay with Highly purified T cells [3] (setting [12]).
Consider `COc1ccc(-c2cnc3nc(NC(C)=O)nc(O)c3n2)cc1OC` [Compound 64, 2-acetamido-4-hydroxy-6-(3,4-dimethoxyphenyl)pteridine], for which the IC50 in assay [1] (setting [10]) is 16 to 150 µM; in the assay with Highly purified T cells [2] (setting [11]), greater than 151 µM; in the assay with Highly purified T cells [3] (setting [12]) it was 16 to 150 µM.
Take `COc1ccc(-c2cnc3nc(NC(C)=O)nc(OC(C)C)c3n2)cc1OC` [Compound 65, 2-acetamido-4-i-propoxy-6-(3,4-dimethoxyphenyl)pteridine]: the results for the IC50 (in assay [1] (setting [10]); in the assay on Highly purified T cells [2] (setting [11]); in the assay on Highly purified T cells [3] (setting [12])) were 1 to 15 µM, 16 to 150 µM and 16 to 150 µM, respectively.
As to `C=CC[C@@H]1/C=C(\C)C[C@H](C)C[C@H](OC)[C@H]2O[C@@](O)(C(=O)C(=O)N3CCCC[C@H]3C(=O)O[C@H](/C(C)=C/[C@@H]3CC[C@@H](O)[C@H](OC)C3)[C@H](C)[C@@H](O)CC1=O)[C@H](C)C[C@@H]2OC` [FK506, tacrolimus, reference compound], the IC50 (in assay [1] (setting [13]); with Highly purified T cells [2] (setting [14])) was 0.001 µM in each case. In addition, the “activity in the anti-CD3 + PMA test” value with Highly purified T cells [2] was “only active”. In addition, the “activity in the anti-CD28 + PMA test” value in the assay on Highly purified T cells [3] is given as “not suppressive”.
In the case of `Cc1oncc1C(=O)Nc1ccc(C(F)(F)F)cc1` [Leflunomide, reference compound], the IC50 in assay [1] (setting [13]) was determined as 25 µM; with Highly purified T cells [2] (setting [14]), 15 µM; in the assay on Highly purified T cells [3] (setting [15]) it was 20 µM.
The like results for `CN(Cc1cnc2nc(N)nc(N)c2n1)c1ccc(C(=O)N[C@@H](CCC(=O)O)C(=O)O)cc1` [MTX, methatroxate, reference compound] were, in that order, 10 µM, greater than 200 µM and greater than 200 µM.
The like results for `CO[C@H]1C[C@@H]2CC[C@@H](C)[C@@](O)(O2)C(=O)C(=O)N2CCCC[C@H]2C(=O)O[C@H]([C@H](C)C[C@@H]2CC[C@@H](O)[C@H](OC)C2)CC(=O)[C@H](C)/C=C(\C)[C@@H](O)[C@@H](OC)C(=O)[C@H](C)C[C@H](C)/C=C/C=C/C=C/1C` [Rapamycin, reference compound] were, in that order, 0.001 µM, 0.001 µM and 0.001 µM.
